{"source": "paper PMC11614538", "about": "“The proline-rich antimicrobial peptide B7-005: low bacterial resistance, safe for human cells and effective in zebrafish embryo bacteraemia model” (Open Biology, 2024)", "key": {"[1]": {"system": "E. coli ATCC 25922", "assay": "microbe, parasite or virus in culture", "settings": "for MIC after 14th passage: 14 daily passages at one-half MIC, 18 h; for MIC: Escherichia coli, ATCC25922", "procedure": "Escherichia coli ATCC 25922 was purchased from the American Type Culture Collection (ATCC) (Manassas, Virginia, USA) and stored at −80°C as glycerol stock until use. Bacterial cultures were grown overnight in sterile Müller–Hinton broth (MHB) (Difco Inc.) at 37°C under agitation (140 r.p.m.). The next day, the cultures were diluted 1 : 30 in new MHB and incubated as described above for about 2 h (mean logarithmic phase) until they reached an optical density at 600 nm of about 0.3 and then diluted in fresh MHB to the desired concentrations.\nThe effects of human serum on the antimicrobial activity of B7-005 were assessed by performing a minimum inhibitory concentration (MIC) assay with some modifications. Non-heat-inactivated human serum (Merk Life Science S.r.l., USA) was diluted to 50%, 40%, 30%, 25%, and 20% (v/v) in MHB and the solutions were aliquoted into the wells of a round-bottomed 96-well microtitre plate (Sarstedt, Milan, Italy). Samples with no serum were used for comparison. B7-005 was diluted in MHB added with the proper amount of serum to a concentration of 128 μM, added to the first column of the plate and serially diluted twofold in MHB, added with the proper amount of serum, in the subsequent wells in a final volume of 50 μl. Then 50 μl of a mid-log suspension of 5 × 10^5 CFU ml^−1 E. coli ATCC 25922 cells prepared in MHB added with the proper amount of serum was added to each well of the plate, halving the final concentration of bacteria and peptide. The plate was incubated at 37°C for 18 h. The MIC value was calculated as the lowest concentration of the compound resulting in complete inhibition of visible bacterial growth. MIC values were determined by performing at least three independent experiments (n ≥ 3).\nThe resistance selection assay was performed by modifying a previously described method. First, the MIC values of each antimicrobial compound (PrAMP or antibiotic) against E. coli ATCC 25922 were determined and recorded as described above. Serial sub-culturing was started by harvesting bacterial cells growing at one-half MIC and inoculating them into fresh MHB. […] This inoculum was incubated o/n and subjected to another MIC test. After 18 h of incubation, the cells growing at one-half MIC were harvested and used for another similar MIC assay. The process was repeated for 7 or 14 daily passages."}, "[2]": {"system": "zebrafish larvae infection model", "settings": "simultaneous injection of pathogens and peptide versus post-infection administration; ref [40]; cited from earlier work", "text": "In the current work, the infection of zebrafish larvae with E. coli and their treatment with B7-005 were strictly controlled performing them by microinjection in the Cuvier duct. […] To better ..."}}, "note": "Residues, ends and D or L forms follow the SMILES beside them.", "data": [{"compound": "colistin", "values": [{"measurement": "MIC during serial passaging", "setting": "[1]; throughout the complete serial passaging process", "result": "remained substantially unchanged"}]}, {"compound": "CC[C@H](C)[C@H](NC(=O)[C@H](CCCNC(=N)N)NC(=O)[C@@H](N)CCCNC(=N)N)C(=O)N[C@@H](CCCNC(=N)N)C(=O)N1CCC[C@H]1C(=O)N[C@@H](CCCNC(=N)N)C(=O)N1CCC[C@H]1C(=O)N1CCC[C@H]1C(=O)N[C@@H](CCCNC(=N)N)C(=O)N[C@@H](CC(C)C)C(=O)N1CCC[C@H]1C(=O)N[C@@H](CCCNC(=N)N)C(=O)N1CCC[C@H]1C(=O)N[C@@H](CCCNC(=N)N)C(=O)N1CCC[C@H]1C(=O)N[C@@H](CCCNC(=N)N)C(=O)O", "note": "[Bac7(1-16)] (H-RRIRPRPPRLPRPRPR-OH)", "values": [{"measurement": "MIC after 14th passage", "setting": "[1]; MHB", "result": 128, "unit": "µM"}]}, {"compound": "CO[C@H]1/C=C/O[C@@]2(C)Oc3c(C)c(O)c4c(O)c(c(/C=N/N5CCN(C)CC5)c(O)c4c3C2=O)NC(=O)/C(C)=C\\C=C\\[C@H](C)[C@H](O)[C@@H](C)[C@@H](O)[C@@H](C)[C@H](OC(C)=O)[C@@H]1C", "note": "[rifampicin]", "values": [{"measurement": "MIC", "setting": "[1]", "result": 1020, "unit": "µM"}, {"measurement": "fold increase in MIC", "setting": "[1]; after 4 passages at one-half MIC", "result": 64, "unit": "fold"}]}, {"compound": "O=C(N[C@H](CO)[C@H](O)c1ccc([N+](=O)[O-])cc1)C(Cl)Cl", "note": "[chloramphenicol]", "values": [{"measurement": "MIC", "setting": "[1]", "result": 1020, "unit": "µM"}, {"measurement": "fold increase in MIC", "setting": "[1]; after 8 passages at one-half MIC", "result": 64, "unit": "fold"}]}, {"compound": "Bac5: another PrAMP previously used in a zebrafish larvae infection model (RFRPPIRRPPIRPPFYPPFRPPIRPPIFPPIRPPFRPPLGPFP; Bactenecin 5; UniProt P19660 131-173, looked up)", "values": [{"measurement": "efficacy in zebrafish larvae infection model", "setting": "[2]", "result": "only effective when the pathogens and peptide were simultaneously injected"}]}, {"compound": "CC[C@H](C)[C@H](NC(=O)[C@H](CCCNC(=N)N)NC(=O)[C@@H](N)CCCNC(=N)N)C(=O)N[C@@H](CCCNC(=N)N)C(=O)N1CCC[C@H]1C(=O)N[C@@H](CCCNC(=N)N)C(=O)N1CCC[C@H]1C(=O)N1CCC[C@H]1C(=O)N[C@@H](CCCNC(=N)N)C(=O)N[C@@H](CC(C)C)C(=O)N1CCC[C@H]1C(=O)N[C@@H](CCCNC(=N)N)C(=O)N1CCC[C@H]1C(=O)N[C@@H](CCCNC(=N)N)C(=O)N1CCC[C@H]1C(=O)N[C@@H](CCCNC(=N)N)C(=O)N1CCC[C@H]1C(=O)N[C@@H](CC(C)C)C(=O)N1CCC[C@H]1C(=O)N[C@@H](Cc1ccccc1)C(=O)N1CCC[C@H]1C(=O)N[C@@H](CCCNC(=N)N)C(=O)N1CCC[C@H]1C(=O)NCC(=O)N1CCC[C@H]1C(=O)N[C@@H](CCCNC(=N)N)C(=O)N1CCC[C@H]1C(=O)N[C@H](C(=O)N1CCC[C@H]1C(=O)N[C@@H](CCCNC(=N)N)C(=O)N1CCC[C@H]1C(=O)N[C@@H](CC(C)C)C(=O)N1CCC[C@H]1C(=O)N[C@@H](Cc1ccccc1)C(=O)N1CCC[C@H]1C(=O)O)[C@@H](C)CC", "note": "[Bac7(1-35)] (H-RRIRPRPPRLPRPRPRPLPFPRPGPRPIPRPLPFP-OH; N-terminus and C-terminus assumed)", "values": [{"measurement": "MIC after 14th passage", "setting": "[1]; MHB", "result": 128, "unit": "µM"}, {"measurement": "passage (cycle) after which MIC started to increase", "setting": "[1]; serial passages at one-half MIC, MHB", "result": 5}]}]}
